Test results reported in patent US8604034B2, “Substituted imidazo[1,2-α]pyrrolo[1,2-d]pyrazines for treating respiratory syncytial virus (RSV) infections” (Biota Scientific Management Pty Ltd., priority 2010, dated 2013).
pEC50: −log10 of the molar value. Structures can show the parent of a compound that is named as a salt. Where two headings read alike, the source gives them in different places.

System: RSV A2
Assay: RSV antiviral cytopathic effect (CPE) assay
Assay type: cell-based
Conditions: human respiratory syncytial virus, HEp-2, 120 h, HEp2 cells infected with RSV A2 (moi ~0.01), 5 days, MTT readout
In short: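 HEp2 cells infected with RSV A2 (moi ~0.01) and incubated with serially diluted compound for 5 days at 37 °C. CPE read by MTT metabolism (absorbance 540/650 nm); uninfected cells gave cytotoxicity. EC50 and CC50 obtained by non-linear regression.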

[1] = read-out: Activity Range (RSV A2 EC50)
[2] = mean EC50, read-out: RSV A2 EC50

SMILES | pEC50 [1] | pEC50 [2]
Cc1nocc1C(=O)N1CCN2C(=O)c3cncn3CC12c1ccc(Cl)cc1 (centres unmarked) [Compound 13] | 5.00 to 6.30 | 5.92
Cc1cc2n(n1)CC1(c3ccc(Cl)cc3)N(C(=O)c3cccnc3)CCN1C2=O (centres unmarked) [Compound 44] | < 5.00 | 
Cc1ccc(C23Cn4cccc4C(=O)N2CCN3C(=O)c2conc2C)nc1 (centres unmarked) [Compound 104] | > 7.31 | 7.57
COc1ccc(C23Cn4nc(-c5ccccn5)cc4C(=O)N2CCN3C(=O)c2conc2C)cc1 (centres unmarked) [Compound 138] | 5.00 to 6.30 | 5.38
Cc1ccc(C23Cn4c(C#N)ccc4C(=O)N2CCN3C(=O)c2conc2C)cn1 (centres unmarked) [Compound 126] | > 7.31 | 8.11
O=C1c2cccn2CC2(c3cccnc3)NCCN12 (centres unmarked) [Compound 102, 10a-(pyridin-3-yl)-2,3,10,10a-tetrahydro-1H,5H-imidazo[1,2-a]pyrrolo[1,2-d]pyrazin-5-one] | < 5.00 | 
COc1ccc(C23Cn4cccc4C(=O)N2CCN3C(=O)c2cccn2C)cc1 (centres unmarked) [Compound 60] | 5.00 to 6.30 | 5.33
Cc1nocc1C(=O)N1CCN2C(=O)c3cc(-c4cccs4)nn3CC12c1ccc(Cl)cc1 (centres unmarked) [Compound 141] | > 7.31 | 7.41
COc1ccc(C23Cn4cc(-c5nnn[nH]5)cc4C(=O)N2CCN3C(=O)c2conc2C)cc1 (centres unmarked) [Compound 75, 10a-(4-methoxyphenyl)-1-[(3-methyl-1,2-oxazol-4-yl)carbonyl]-7-(1H-tetrazol-5-yl)-2,3,10,10a-tetrahydro-1H,5H-imidazo[1,2-a]pyrrolo[1,2-d]pyrazin-5-one] | < 5.00 | 
Cc1nocc1C(=O)N1CCN2C(=O)c3ccc(Cl)n3CC12C1CCOCC1 (centres unmarked) [Compound 81, 8-chloro-1-[(3-methyl-1,2-oxazol-4-yl)carbonyl]-10a-(tetrahydro-2H-pyran-4-yl)-2,3,10,10a-tetrahydro-1H,5H-imidazo[1,2-a]pyrrolo[1,2-d]pyrazin-5-one] | 7.00 to 7.30 | 7.17
O=C(c1ccoc1)N1CCN2C(=O)c3cccn3CC12c1ccc(Cl)cc1 (centres unmarked) [Compound 15] | 7.00 to 7.30 | 7.25
Cc1nocc1C(=O)N1CCN2C(=O)c3nccn3CC12c1ccc(Cl)cc1 (centres unmarked) [Compound 11] | 6.30 to 7.00 | 6.77
Cc1nocc1C(=O)N1CCN2C(=O)c3cccn3CC12c1ccc(OC(F)F)cc1 (centres unmarked) [Compound 1, 10a-[4-(difluoromethoxy)phenyl]-1-[(3-methyl-1,2-oxazol-4-yl)carbonyl]-2,3,10,10a-tetrahydro-1H,5H-imidazo[1,2-a]pyrrolo[1,2-d]pyrazin-5-one] | 7.00 to 7.30 | 7.05
Cc1nocc1C(=O)N1CCN2C(=O)c3ccc(-c4ccncc4)n3CC12c1ccc(F)cc1 (centres unmarked) [Compound 99] | 6.30 to 7.00 | 6.72
COc1ccc(C23Cn4cccc4C(=O)N2CCN3C(=O)c2conc2C)cn1 (centres unmarked) [Compound 58] | > 7.31 | 7.31
COc1ccc(C23Cn4cc(-c5cccnc5)cc4C(=O)N2CCN3C(=O)c2conc2C)cc1 (centres unmarked) [Compound 83] | 7.00 to 7.30 | 6.92
Cc1nocc1C(=O)N1CCN2C(=O)c3cc(-c4ccccn4)nn3CC12c1ccc(F)cc1 (centres unmarked) [Compound 129] | 6.30 to 7.00 | 6.89
Cc1nocc1C(=O)N1CCN2C(=O)c3ccc(Cl)n3CC12c1ccc(Cl)cc1 (centres unmarked) [Compound 22, 8-chloro-10a-(4-chlorophenyl)-1-[(3-methyl-1,2-oxazol-4-yl)carbonyl]-2,3,10,10a-tetrahydro-1H,5H-imidazo[1,2-a]pyrrolo[1,2-d]pyrazin-5-one] | > 7.31 | 8.66
Cc1nocc1C(=O)N1CCN2C(=O)c3cccn3CC12c1ccc2c(c1)CCO2 (centres unmarked) [Compound 57] | > 7.31 | 7.85
Cc1ccc(C23Cn4cc(-c5ccccn5)cc4C(=O)N2CCN3C(=O)c2conc2C)cc1 (centres unmarked) [Compound 93, 1-[(3-methyl-1,2-oxazol-4-yl)carbonyl]-10a-(4-methylphenyl)-7-(pyridin-2-yl)-2,3,10,10a-tetrahydro-1H,5H-imidazo[1,2-a]pyrrolo[1,2-d]pyrazin-5-one] | > 7.31 | 8.09
COc1ccc(C23Cn4cc(CN)cc4C(=O)N2CCN3C(=O)c2conc2C)cc1 (centres unmarked) [Compound 147, 7-(aminomethyl)-10a-(4-methoxyphenyl)-1-[(3-methyl-1,2-oxazol-4-yl)carbonyl]-2,3,10,10a-tetrahydro-1H,5H-imidazo[1,2-a]pyrrolo[1,2-d]pyrazin-5-one; trifluoroacetate salt] | 6.30 to 7.00 | 6.41
Cc1nocc1C(=O)N1CCN2C(=O)c3cccn3CC12c1ccc(OCCO)cc1 (centres unmarked) [Compound 109, 10a-[4-(2-hydroxyethoxy)phenyl]-1-[(3-methyl-1,2-oxazol-4-yl)carbonyl]-2,3,10,10a-tetrahydro-1H,5H-imidazo[1,2-a]pyrrolo[1,2-d]pyrazin-5-one] | 6.30 to 7.00 | 6.52
Cc1ccc(C23Cn4cc(-c5cnn(C)c5)cc4C(=O)N2CCN3C(=O)c2conc2C)cn1 (centres unmarked) [Compound 132] | > 7.31 | 7.51
Cc1ocnc1C(=O)N1CCN2C(=O)c3cccn3CC12c1ccc(Cl)cc1 (centres unmarked) [Compound 3] | 6.30 to 7.00 | 6.85

SMILES | pEC50 [1] | pEC50 [2]
O=C(NCCc1ccccc1)N1CCN2C(=O)c3cccn3CC12c1ccc(Cl)cc1 (centres unmarked) [Compound 48] | 5.00 to 6.30 | 5.89
COc1ccc(C23Cn4cccc4C(=O)N2CCN3C(=O)c2ccnn2C)cc1 (centres unmarked) [Compound 61] | 5.00 to 6.30 | 6.01
Cc1nocc1C(=O)N1CCN2C(=O)c3c(C)ncn3CC12c1ccc(Cl)cc1 (centres unmarked) [Compound 12] | 5.00 to 6.30 | 5.12
Cc1nocc1C(=O)N1CCN2C(=O)c3ccnn3CC12c1ccc(Cl)cc1 (centres unmarked) [Compound 72] | > 7.31 | 7.32
COc1ccc(C23Cn4cccc4C(=O)N2CCN3C(=O)c2nonc2C)cc1 (centres unmarked) [Compound 136] | 5.00 to 6.30 | 6.05
Cc1nocc1C(=O)N1CCN2C(=O)c3cccn3CC12c1ccccc1 (centres unmarked) [Compound 35, 1-[(3-methyl-1,2-oxazol-4-yl)carbonyl]-10a-phenyl-2,3,10,10a-tetrahydro-1H,5H-imidazo[1,2-a]pyrrolo[1,2-d]pyrazin-5-one] | 7.00 to 7.30 | 7.27
Cc1nocc1C(=O)N1CCN2C(=O)c3cc(-c4cccn4C)nn3CC12c1ccc(Cl)cc1 (centres unmarked) [Compound 140] | 5.00 to 6.30 | 6.26
Cc1ccc(C23Cn4cc(-c5cnn(C)c5)cc4C(=O)N2CCN3C(=O)c2conc2C)nc1 (centres unmarked) [Compound 134] | > 7.31 | 7.51
COCc1ccc(C23Cn4cccc4C(=O)N2CCN3C(=O)c2conc2C)cc1 (centres unmarked) [Compound 76] | 7.00 to 7.30 | 7.17
Cc1ccc(C23Cn4cc(Br)cc4C(=O)N2CCN3)cc1 (centres unmarked) [Compound 86] | < 5.00 | 
Cc1cnc(C23Cn4cccc4C(=O)N2CCN3C(=O)c2conc2C)cn1 (centres unmarked) [Compound 114] | > 7.31 | 7.41
COc1ccc(C23Cn4c(ccc4-c4cnn(C)c4)C(=O)N2CCN3C(=O)c2conc2C)cc1 (centres unmarked) [Compound 34] | 6.30 to 7.00 | 6.42
COc1ccc(C23Cn4c(C#N)ccc4C(=O)N2CCN3C(=O)c2conc2C)cn1 (centres unmarked) [Compound 133] | > 7.31 | 8.15
Cc1nocc1C(=O)N1CCN2C(=O)c3cccn3CC12C1CCOCC1 (centres unmarked) [Compound 50, 1-[(3-methyl-1,2-oxazol-4-yl)carbonyl]-10a-(tetrahydro-2H-pyran-4-yl)-2,3,10,10a-tetrahydro-1H,5H-imidazo[1,2-a]pyrrolo[1,2-d]pyrazin-5-onel] | 5.00 to 6.30 | 5.85
Cc1nocc1C(=O)N1CCN2C(=O)c3cccn3CC12c1cnn(C)c1 (centres unmarked) [Compound 118] | 6.30 to 7.00 | 6.49
COc1ccc(C23Cn4cc(-c5ccncc5)cc4C(=O)N2CCN3C(=O)c2conc2C)cc1 (centres unmarked) [Compound 84] | > 7.31 | 7.74
O=C1c2cc(Br)cn2CC2(c3ccc(F)cc3)NCCN12 (centres unmarked) [Compound 85] | < 5.00 | 
COc1ccc(C23Cn4cc(NC5CCCCC5)cc4C(=O)N2CCN3C(=O)c2conc2C)cc1 (centres unmarked) [Compound 112, 7-(cyclohexylamino)-10a-(4-methoxyphenyl)-1-[(3-methyl-1,2-oxazol-4-yl)carbonyl]-2,3,10,10a-tetrahydro-1H,5H-imidazo[1,2-a]pyrrolo[1,2-d]pyrazin-5-one] | < 5.00 | 
COc1ccc(C23Cn4cc(-c5cnn(C)c5)cc4C(=O)N2CCN3C(=O)c2conc2C)cc1 (centres unmarked) [Compound 82] | > 7.31 | 7.32
Cc1cc2n(n1)CC1(c3ccc(Cl)cc3)NCCN1C2=O (centres unmarked) [Compound 47] | < 5.00 | 
Cc1nocc1C(=O)N1CCN2C(=O)c3cc(-c4cccnc4)cn3CC12c1ccc(F)cc1 (centres unmarked) [Compound 98] | 7.00 to 7.30 | 7.16
COc1ccc(C23Cn4cccc4C(=O)N2CCN3C(=O)c2ncoc2C2CC2)cc1 (centres unmarked) [Compound 59] | 6.30 to 7.00 | 6.74
C#Cc1ccc2n1CC1(c3ccc(OC)cc3)N(C(=O)c3conc3C)CCN1C2=O (centres unmarked) [Compound 108, 8-ethynyl-10a-(4-methoxyphenyl)-1-[(3-methyl-1,2-oxazol-4-yl)carbonyl]-2,3,10,10a-tetrahydro-1H,5H-imidazo[1,2-a]pyrrolo[1,2-d]pyrazin-5-one] | > 7.31 | 7.77
Cc1nocc1C(=O)N1CCN2C(=O)c3cccn3CC12c1ccc(OCCN2CCOCC2)cc1 (centres unmarked) [Compound 110, 1-[(3-methyl-1,2-oxazol-4-yl)carbonyl]-10a-{4-[2-(morpholin-4-yl)ethoxy]phenyl}-2,3,10,10a-tetrahydro-1H,5H-imidazo[1,2-a]pyrrolo[1,2-d]pyrazin-5-one] | 5.00 to 6.30 | 6.17
